# Reference: US20230293407A1, “Compositions Comprising (Bio)-Alkanediols with Antimicrobials for Product Protection” (Symrise AG, priority 2020, published 2023)
# Tests used:
# Pseudomonas aeruginosa = assay: preservation efficacy test (PET), European Pharmacopoeia 5.1.3; assay type: cell-based
# Staphylococcus aureus = assay: as above; assay type: cell-based
# Escherichia coli = assay: as above; assay type: cell-based; settings: for number of microorganisms, 14 days / number of microorganisms, 28 days: Escherichia coli (EC)
# Candida albicans = assay: as above; assay type: cell-based; settings: for count at 2 days / count at 7 days / count at 14 days / count at 28 days: CA, use concentration in label
# Aspergillus brasiliensis = assay: as above; assay type: cell-based; settings: for count at 2 days / count at 7 days / count at 14 days / count at 28 days: AB, use concentration in label
# bacteria = assay: preservation efficacy test (PET), overview of the effect against bacteria; assay type: cell-based; settings: PET in formulation, result in words on Table 7
# yeast = assay: preservation efficacy test (PET), overview of the effect against yeast; assay type: cell-based, Candida albicans; settings: PET in formulation, result in words on Table 7
# fungi/mould = assay: preservation efficacy test (PET), overview of the effect against fungi/mould; assay type: cell-based, Aspergillus brasiliensis; settings: PET in formulation, result in words on Table 7
# [1] = maximum water solubility of alkanediols, visual observation; assay type: physicochemical; settings: ambient temperature after 24 h storage at 5° C.
# Description: The water solubility of a substance is the saturation mass concentration of the substance in water at a given temperature. The determination of the solubility in water relates to essentially pure substances which are stable in water and not volatile. The determination of the water solubility of the alkanediols is further described in the following Example 2.
# For the determination of the maximum water solubility of an alkanediol, water and different concentrations of the respective alkanediol were blended by stirring. […] The determination of whether the alkanediol has dissolved in water is based entirely on visual observation.
# [2] = 14 days after inoculation, substance at given % in test formulation
# [3] = 28 days after inoculation, substance at given % in test formulation
# [4] = 2 days after inoculation, substance at given % in test formulation, listed as 0.2% 1,2-heptanediol
# [5] = 7 days after inoculation, substance at given % in test formulation, listed as 0.2% 1,2-heptanediol
# [6] = 28 days after inoculation, substance at given % in test formulation, listed as 0.2% 1,2-heptanediol
# [7] = 28 days after inoculation, substance at given % in test formulation, listed as 0.4% 1,2-heptanediol
# [8] = 2 days after inoculation, listed as 0.6% 1,2-heptanediol
# [9] = 2 days after inoculation, listed as 0.8% 1,2-heptanediol
# [10] = 7 days after inoculation, listed as 0.6% 1,2-heptanediol
# [11] = 7 days after inoculation, listed as 0.8% 1,2-heptanediol
# [12] = 14 days after inoculation, listed as 0.6% 1,2-heptanediol
# [13] = 14 days after inoculation, listed as 0.8% 1,2-heptanediol
# [14] = 28 days after inoculation, listed as 0.6% 1,2-heptanediol
# [15] = 28 days after inoculation, listed as 0.8% 1,2-heptanediol
smiles,measurement,setting,value
"CCCCCC(O)CO (stereo not drawn) [1,2-heptanediol]","PA germ count, 2 days","Pseudomonas aeruginosa; 2 days after inoculation, substance at given % in test formulation",1
same,"PA germ count, 7 days","Pseudomonas aeruginosa; 7 days after inoculation, substance at given % in test formulation",1
same,"PA germ count, 14 days",Pseudomonas aeruginosa; [2],1
same,"PA germ count, 28 days",Pseudomonas aeruginosa; [3],1
same,count at 2 days,"Pseudomonas aeruginosa; PA, 2 days after inoculation, use concentration in label",1
same,count at 7 days,"Pseudomonas aeruginosa; PA, 7 days after inoculation, use concentration in label",1
same,count at 14 days,"Pseudomonas aeruginosa; PA, 14 days after inoculation, use concentration in label",1
same,count at 28 days,"Pseudomonas aeruginosa; PA, 28 days after inoculation, use concentration in label",1
same,"SA germ count, 2 days",Staphylococcus aureus; [4],95.000
same,"SA germ count, 7 days",Staphylococcus aureus; [5],1
same,"SA germ count, 14 days",Staphylococcus aureus; [2],1
same,"SA germ count, 28 days",Staphylococcus aureus; [3],1
same,"number of microorganisms, 2 days","Staphylococcus aureus; PET in shampoo, Staphylococcus aureus (SA), 2 days after inoculation",10
same,"number of microorganisms, 7 days","Staphylococcus aureus; PET in shampoo, Staphylococcus aureus (SA), 7 days after inoculation",10
same,"number of microorganisms, 14 days","Staphylococcus aureus; PET in shampoo, Staphylococcus aureus (SA), 14 days after inoculation",1
same,"number of microorganisms, 28 days","Staphylococcus aureus; PET in shampoo, Staphylococcus aureus (SA), 28 days after inoculation",1
same,"number of microorganisms, 14 days","Staphylococcus aureus; PET, Staphylococcus aureus (SA), 14 days after inoculation",1
same,"number of microorganisms, 28 days","Staphylococcus aureus; PET, Staphylococcus aureus (SA), 28 days after inoculation",1
same,count at 2 days,"Staphylococcus aureus; SA, 2 days after inoculation, use concentration in label, listed as 0.6% 1,2-heptanediol",1
same,count at 2 days,"Staphylococcus aureus; SA, 2 days after inoculation, use concentration in label, listed as 0.8% 1,2-heptanediol",1
same,count at 7 days,"Staphylococcus aureus; SA, 7 days after inoculation, use concentration in label, listed as 0.6% 1,2-heptanediol",1
same,count at 7 days,"Staphylococcus aureus; SA, 7 days after inoculation, use concentration in label, listed as 0.8% 1,2-heptanediol",1
same,count at 14 days,"Staphylococcus aureus; SA, 14 days after inoculation, use concentration in label",1
same,count at 28 days,"Staphylococcus aureus; SA, 28 days after inoculation, use concentration in label",1
same,"EC germ count, 2 days",Escherichia coli; [4],38.000
same,"EC germ count, 7 days",Escherichia coli; [5],73
same,"EC germ count, 14 days","Escherichia coli; 14 days after inoculation, substance at given % in test formulation, listed as 0.2% 1,2-heptanediol",1
same,"EC germ count, 14 days","Escherichia coli; 14 days after inoculation, substance at given % in test formulation, listed as 0.4% 1,2-heptanediol",1
same,"EC germ count, 28 days",Escherichia coli; [6],1
same,"EC germ count, 28 days",Escherichia coli; [7],1
same,count at 2 days,"Escherichia coli; EC, 2 days after inoculation, use concentration in label, listed as 0.6% 1,2-heptanediol",1
same,count at 2 days,"Escherichia coli; EC, 2 days after inoculation, use concentration in label, listed as 0.8% 1,2-heptanediol",1
same,count at 7 days,"Escherichia coli; EC, 7 days after inoculation, use concentration in label, listed as 0.6% 1,2-heptanediol",1
same,count at 7 days,"Escherichia coli; EC, 7 days after inoculation, use concentration in label, listed as 0.8% 1,2-heptanediol",1
same,count at 14 days,"Escherichia coli; EC, 14 days after inoculation, use concentration in label",1
same,count at 28 days,"Escherichia coli; EC, 28 days after inoculation, use concentration in label",1
same,"number of microorganisms, 14 days","Escherichia coli; PET in shampoo, 14 days after inoculation",200.000
same,"number of microorganisms, 28 days","Escherichia coli; PET in shampoo, 28 days after inoculation",1
same,"number of microorganisms, 14 days","Escherichia coli; PET, 14 days after inoculation",1
same,"number of microorganisms, 28 days","Escherichia coli; PET, 28 days after inoculation",1
same,"CA germ count, 28 days",Candida albicans; [6],620.000
same,count at 2 days,Candida albicans; [8],69.000
same,count at 2 days,Candida albicans; [9],68.000
same,count at 7 days,Candida albicans; [10],2.800
same,count at 7 days,Candida albicans; [11],1
same,count at 14 days,Candida albicans; [12],1
same,count at 14 days,Candida albicans; [13],1
same,count at 28 days,Candida albicans; [14],1
same,count at 28 days,Candida albicans; [15],1
same,"number of microorganisms, 2 days","Candida albicans; PET in shampoo, Candida albicans (CA), 2 days after inoculation",220.000
same,"number of microorganisms, 7 days","Candida albicans; PET in shampoo, Candida albicans (CA), 7 days after inoculation",62.000
same,"number of microorganisms, 14 days","Candida albicans; PET in shampoo, Candida albicans (CA), 14 days after inoculation",8.100
same,"number of microorganisms, 28 days","Candida albicans; PET in shampoo, Candida albicans (CA), 28 days after inoculation",1
same,"AB germ count, 28 days",Aspergillus brasiliensis; [7],1
same,count at 2 days,Aspergillus brasiliensis; [8],510.000
same,count at 2 days,Aspergillus brasiliensis; [9],670.000
same,count at 7 days,Aspergillus brasiliensis; [10],16.000
same,count at 7 days,Aspergillus brasiliensis; [11],410.000
same,count at 14 days,Aspergillus brasiliensis; [12],51.000
same,count at 14 days,Aspergillus brasiliensis; [13],63.000
same,count at 28 days,"Aspergillus brasiliensis; 28 days after inoculation, listed as 0.4% 1,2-heptanediol",1
same,count at 28 days,Aspergillus brasiliensis; [14],1
same,count at 28 days,Aspergillus brasiliensis; [15],1.100
same,efficacy against Aspergillus brasiliensis,"Aspergillus brasiliensis; PET in formulation, result in words on Table 7",significantly efficacy
same,"number of microorganisms, 2 days","Aspergillus brasiliensis; PET in shampoo, Aspergillus brasiliensis (AB), 2 days after inoculation",240.000
same,"number of microorganisms, 7 days","Aspergillus brasiliensis; PET in shampoo, Aspergillus brasiliensis (AB), 7 days after inoculation",220.000
same,"number of microorganisms, 14 days","Aspergillus brasiliensis; PET in shampoo, Aspergillus brasiliensis (AB), 14 days after inoculation",150.000
same,"number of microorganisms, 28 days","Aspergillus brasiliensis; PET in shampoo, Aspergillus brasiliensis (AB), 28 days after inoculation",19.000
same,antimicrobial efficacy against bacteria,bacteria,concentration dependent antimicrobial efficacy
same,antimicrobial efficacy against yeast,yeast,concentration dependent antimicrobial efficacy
same,antimicrobial efficacy against fungi,fungi/mould,concentration dependent antimicrobial efficacy
same,Maximum solubility in water,[1],2.5 % by weight
